Results taken from PubChem BioAssay AID1918996 (Molecular Pharmacology Branch, DTP, NCI, 2023).
pIC50: −log10 of the molar value.

System: 349418-098-R-PDC complex spheroid growth
Assay: Anticancer human tumor 349418-098-R-PDC patient-derived lung adenocarcinoma cell line growth inhibition [AhR]
Conditions: for pIC50: curve of first compound; for viability, T/C: stronger effect = lower value
Procedure, shortened: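 Agents were dosed in half-log steps down from roughly clinical Cmax, or from 10 microM where Cmax was unknown, alone and with AhR antagonists. Read-out: percent test/control growth of tumor spheroids containing HUVEC and MSC stromal cells.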

[1] = second compound 0.1 µM, first compound 0.00949 µM
[2] = second compound 0.1 µM, first compound 0.03 µM
[3] = second compound 0.1 µM, first compound 0.0949 µM
[4] = second compound 0.1 µM, first compound 0.3 µM
[5] = second compound 0.316 µM, first compound 0.00949 µM
[6] = second compound 0.316 µM, first compound 0.03 µM
[7] = second compound 0.316 µM, first compound 0.0949 µM
[8] = second compound 0.316 µM, first compound 0.3 µM
[9] = second compound 1 µM, first compound 0.00949 µM
[10] = second compound 1 µM, first compound 0.03 µM
[11] = second compound 1 µM, first compound 0.0949 µM
[12] = second compound 1 µM, first compound 0.3 µM
[13] = second compound 3.16 µM, first compound 0.00949 µM
[14] = second compound 3.16 µM, first compound 0.03 µM
[15] = second compound 3.16 µM, first compound 0.0949 µM
[16] = second compound 3.16 µM, first compound 0.3 µM
[17] = second compound 10 µM, first compound 0.00949 µM
[18] = second compound 10 µM, first compound 0.03 µM
[19] = second compound 10 µM, first compound 0.0949 µM
[20] = second compound 10 µM, first compound 0.3 µM
[21] = second compound 0.1 µM, first compound 0.0316 µM
[22] = second compound 0.1 µM, first compound 0.1 µM
[23] = second compound 0.1 µM, first compound 0.316 µM
[24] = second compound 0.1 µM, first compound 1 µM
[25] = second compound 0.316 µM, first compound 0.0316 µM
[26] = second compound 0.316 µM, first compound 0.1 µM
[27] = second compound 0.316 µM, first compound 0.316 µM
[28] = second compound 0.316 µM, first compound 1 µM
[29] = second compound 1 µM, first compound 0.0316 µM
[30] = second compound 1 µM, first compound 0.1 µM
[31] = second compound 1 µM, first compound 0.316 µM
[32] = second compound 1 µM, first compound 1 µM
[33] = second compound 3.16 µM, first compound 0.0316 µM
[34] = second compound 3.16 µM, first compound 0.1 µM
[35] = second compound 3.16 µM, first compound 0.316 µM
[36] = second compound 3.16 µM, first compound 1 µM
[37] = second compound 10 µM, first compound 0.0316 µM
[38] = second compound 10 µM, first compound 0.1 µM
[39] = second compound 10 µM, first compound 0.316 µM
[40] = second compound 10 µM, first compound 1 µM
[41] = second compound 0.1 µM, first compound 3.16 µM
[42] = second compound 0.1 µM, first compound 10 µM
[43] = second compound 0.316 µM, first compound 3.16 µM
[44] = second compound 0.316 µM, first compound 10 µM
[45] = second compound 1 µM, first compound 3.16 µM
[46] = second compound 1 µM, first compound 10 µM
[47] = second compound 3.16 µM, first compound 3.16 µM
[48] = second compound 3.16 µM, first compound 10 µM
[49] = second compound 10 µM, first compound 3.16 µM
[50] = second compound 10 µM, first compound 10 µM
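Note: spheroids exposed to agents for seven days before luminescence viability read.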
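Throughout, for viability, T/C: spheroids also contain HUVEC endothelial cells and human MSC stroma.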

CC(C)CC(NC(=O)C(Cc1ccccc1)NC(=O)c1cnccn1)B(O)O (stereo not given) + CC(CO)NC(=O)c1cc(-c2ccc(Cl)cc2)nn(-c2cnn(C)c2)c1=O
pIC50 (second compound 0.1 µM): > 9.02 | pIC50 (second compound 0.316 µM): > 9.02 | pIC50 (second compound 1 µM): > 9.02 | pIC50 (second compound 3.16 µM): > 9.02 | pIC50 (second compound 10 µM): > 9.02 | viability, T/C (second compound 0.1 µM, first compound 0.000949 µM): 23.1% | viability, T/C (second compound 0.1 µM, first compound 0.003 µM): 6.06% | viability, T/C [1]: 3.66% | viability, T/C [2]: 2.47% | viability, T/C [3]: 2.75% | viability, T/C [4]: 1.27% | viability, T/C (second compound 0.316 µM, first compound 0.000949 µM): 24.2% | viability, T/C (second compound 0.316 µM, first compound 0.003 µM): 6.19% | viability, T/C [5]: 4.09% | viability, T/C [6]: 1.94% | viability, T/C [7]: 2.38% | viability, T/C [8]: 1.96% | viability, T/C (second compound 1 µM, first compound 0.000949 µM): 22.5% | viability, T/C (second compound 1 µM, first compound 0.003 µM): 5.68% | viability, T/C [9]: 2.71% | viability, T/C [10]: 2.61% | viability, T/C [11]: 1.69% | viability, T/C [12]: 1.84% | viability, T/C (second compound 3.16 µM, first compound 0.000949 µM): 21.1% | viability, T/C (second compound 3.16 µM, first compound 0.003 µM): 6.77% | viability, T/C [13]: 2.56% | viability, T/C [14]: 1.42% | viability, T/C [15]: 1.44% | viability, T/C [16]: 1.95% | viability, T/C (second compound 10 µM, first compound 0.000949 µM): 23.2% | viability, T/C (second compound 10 µM, first compound 0.003 µM): 6.76% | viability, T/C [17]: 2.77% | viability, T/C [18]: 1.65% | viability, T/C [19]: 1.33% | viability, T/C [20]: 1.68%

Nc1ncn(C2CC(O)C(CO)O2)c(=O)n1 (stereo not given) + Cc1cncc(-c2nc(NCCc3c[nH]c4ccccc34)c3ncn(C(C)C)c3n2)c1
pIC50 (second compound 0.1 µM): 6.75 | pIC50 (second compound 0.316 µM): 6.66 | pIC50 (second compound 1 µM): 6.52 | pIC50 (second compound 3.16 µM): > 8.50 | pIC50 (second compound 10 µM): > 8.50 | viability, T/C (second compound 0.1 µM, first compound 0.00316 µM): 88.5% | viability, T/C (second compound 0.1 µM, first compound 0.01 µM): 97.9% | viability, T/C [21]: 80.3% | viability, T/C [22]: 59.9% | viability, T/C [23]: 40.9% | viability, T/C [24]: 29.1% | viability, T/C (second compound 0.316 µM, first compound 0.00316 µM): 93% | viability, T/C (second compound 0.316 µM, first compound 0.01 µM): 88.3% | viability, T/C [25]: 83.2% | viability, T/C [26]: 69.9% | viability, T/C [27]: 40.7% | viability, T/C [28]: 25.7% | viability, T/C (second compound 1 µM, first compound 0.00316 µM): 84.6% | viability, T/C (second compound 1 µM, first compound 0.01 µM): 87.2% | viability, T/C [29]: 82.7% | viability, T/C [30]: 68.6% | viability, T/C [31]: 50.1% | viability, T/C [32]: 34.3% | viability, T/C (second compound 3.16 µM, first compound 0.00316 µM): 20.6% | viability, T/C (second compound 3.16 µM, first compound 0.01 µM): 21.6% | viability, T/C [33]: 21.9% | viability, T/C [34]: 17.4% | viability, T/C [35]: 17.7% | viability, T/C [36]: 16.2% | viability, T/C (second compound 10 µM, first compound 0.00316 µM): 1.51% | viability, T/C (second compound 10 µM, first compound 0.01 µM): 1.55% | viability, T/C [37]: 1.75% | viability, T/C [38]: 1.51% | viability, T/C [39]: 1.2% | viability, T/C [40]: 1.31%

O=C(C=Cn1cnc(-c2cc(C(F)(F)F)cc(C(F)(F)F)c2)n1)NNc1cnccn1 + CC(CO)NC(=O)c1cc(-c2ccc(Cl)cc2)nn(-c2cnn(C)c2)c1=O
pIC50 (second compound 0.1 µM): > 8.02 | pIC50 (second compound 0.316 µM): > 8.02 | pIC50 (second compound 1 µM): 7.77 | pIC50 (second compound 3.16 µM): > 8.02 | pIC50 (second compound 10 µM): > 8.02 | viability, T/C [1]: 44.2% | viability, T/C [2]: 32.1% | viability, T/C [3]: 18% | viability, T/C [4]: 9.7% | viability, T/C (second compound 0.1 µM, first compound 0.949 µM): 8.06% | viability, T/C (second compound 0.1 µM, first compound 3 µM): 6.68% | viability, T/C [5]: 42.7% | viability, T/C [6]: 34.2% | viability, T/C [7]: 22.2% | viability, T/C [8]: 10.9% | viability, T/C (second compound 0.316 µM, first compound 0.949 µM): 7.86% | viability, T/C (second compound 0.316 µM, first compound 3 µM): 5.14% | viability, T/C [9]: 62.4% | viability, T/C [10]: 37.9% | viability, T/C [11]: 20.1% | viability, T/C [12]: 11.7% | viability, T/C (second compound 1 µM, first compound 0.949 µM): 9.27% | viability, T/C (second compound 1 µM, first compound 3 µM): 5.79% | viability, T/C [13]: 48% | viability, T/C [14]: 43.3% | viability, T/C [15]: 18.6% | viability, T/C [16]: 9.44% | viability, T/C (second compound 3.16 µM, first compound 0.949 µM): 7.82% | viability, T/C (second compound 3.16 µM, first compound 3 µM): 5.81% | viability, T/C [17]: 36.1% | viability, T/C [18]: 34.6% | viability, T/C [19]: 18.9% | viability, T/C [20]: 8.82% | viability, T/C (second compound 10 µM, first compound 0.949 µM): 7.38% | viability, T/C (second compound 10 µM, first compound 3 µM): 6.61%

COc1cc(Nc2ncc3c(n2)-c2ccc(Cl)cc2C(c2c(F)cccc2OC)=NC3)ccc1C(=O)O + CC(CO)NC(=O)c1cc(-c2ccc(Cl)cc2)nn(-c2cnn(C)c2)c1=O
pIC50 (second compound 0.1 µM): 7.03 | pIC50 (second compound 0.316 µM): 7.32 | pIC50 (second compound 1 µM): 6.97 | pIC50 (second compound 3.16 µM): 7.33 | pIC50 (second compound 10 µM): > 7.50 | viability, T/C [21]: 66.3% | viability, T/C [22]: 49.3% | viability, T/C [23]: 33.4% | viability, T/C [24]: 37.4% | viability, T/C [41]: 31.7% | viability, T/C [42]: 23.1% | viability, T/C [25]: 58.7% | viability, T/C [26]: 33.7% | viability, T/C [27]: 29.5% | viability, T/C [28]: 29.2% | viability, T/C [43]: 28.1% | viability, T/C [44]: 26% | viability, T/C [29]: 71.9% | viability, T/C [30]: 51.3% | viability, T/C [31]: 27.8% | viability, T/C [32]: 31.3% | viability, T/C [45]: 29.5% | viability, T/C [46]: 32% | viability, T/C [33]: 55.2% | viability, T/C [34]: 41.3% | viability, T/C [35]: 32.8% | viability, T/C [36]: 28% | viability, T/C [47]: 28.8% | viability, T/C [48]: 29.7% | viability, T/C [37]: 38.4% | viability, T/C [38]: 23.4% | viability, T/C [39]: 32% | viability, T/C [40]: 24.8% | viability, T/C [49]: 20.9% | viability, T/C [50]: 24.2%

Nc1ccccc1NC(=O)c1ccc(CNC(=O)OCc2cccnc2)cc1 + Cc1cncc(-c2nc(NCCc3c[nH]c4ccccc34)c3ncn(C(C)C)c3n2)c1
pIC50 (second compound 0.1 µM): 6.21 | pIC50 (second compound 0.316 µM): 6.12 | pIC50 (second compound 1 µM): 6.29 | pIC50 (second compound 3.16 µM): > 7.50 | pIC50 (second compound 10 µM): > 7.50 | viability, T/C [21]: 79.9% | viability, T/C [22]: 69.6% | viability, T/C [23]: 58.4% | viability, T/C [24]: 46.7% | viability, T/C [41]: 19.9% | viability, T/C [42]: 4.89% | viability, T/C [25]: 69.7% | viability, T/C [26]: 73.5% | viability, T/C [27]: 57.3% | viability, T/C [28]: 47.7% | viability, T/C [43]: 25.6% | viability, T/C [44]: 4.93% | viability, T/C [29]: 72.6% | viability, T/C [30]: 67.5% | viability, T/C [31]: 54.9% | viability, T/C [32]: 43.2% | viability, T/C [45]: 20.1% | viability, T/C [46]: 4.95% | viability, T/C [33]: 12.8% | viability, T/C [34]: 15.7% | viability, T/C [35]: 9.2% | viability, T/C [36]: 12.1% | viability, T/C [47]: 7.68% | viability, T/C [48]: 2.59% | viability, T/C [37]: 1% | viability, T/C [38]: 1.06% | viability, T/C [39]: 0.67% | viability, T/C [40]: 0.76% | viability, T/C [49]: 0.51% | viability, T/C [50]: 0.34%
